Consider 13 compounds from ChEMBL document CHEMBL1201862, “PubChem BioAssay data set” (2004).

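Protocol summary: plate cells (96-well), add compound at 5 concentrations, incubate 48 h, interpolate endpoints linearly. Abbreviation: GI50, concentration required for 50% inhibition of growth.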 The source made the active and inactive calls. Cut-off read from the data, not from the text of the source: active = GI50 up to about 1.1 µM and inactive = higher.

What all share (test): DTP human tumour cell line panel, 48 h
For test [1], the system named is ACHN.
Test [2] concerns CCRF-CEM.
Test [3] deals with COLO 205.
The subject of test [4] is EKVX.
In test [5] the test system is HCT-116.
The subject of test [6] is HCT-15.
Test [7] concerns HOP-92.
The test system of test [8] is HT-29.
Test [9] concerns K562.
Test [10] has as its system NCI-H226.
Test [11] has as its system NCI-H460.
In test [12] the test system is RXF 393.
Test [13] concerns UACC-257.
The subject of test [14] is UO-31.
Test [15] has as its system OVCAR-4.
For test [16], the system named is SF-268.
In test [17] the test system is SK-MEL-2.
Test [18] has as its system SR.

As usually defined, the GI50 is the concentration that inhibits growth by half.

For the compound `COC(=O)Cc1c([C@@]2(C)CCCC(C)(C)C2)ccc2c1C(=O)OC2`, the GI50 was 11.7 µM (inactive) in test [1]; 6.49 µM (inactive) in [2]; 6.7 µM (inactive) in test [3]; 18.1 µM (inactive) in test [4]; 5.64 µM (inactive) in [5]; 6.44 µM in test [6]. Further, the GI50 is 3.01 µM (inactive) in [7]; 10.8 µM (inactive) in [8]; 4.02 µM (inactive) in [9]; 11.2 µM (inactive) in test [10]; 8.83 µM (inactive) in test [11]; 10.4 µM (inactive) in test [12]. For the same compound, the GI50 in test [13] is 5.66 µM (inactive); in test [14] it was 3.58 µM (inactive).

Regarding `COc1ccc(C[C@]23CCC(=O)N2CCc2cc(OC)c(O)cc23)cc1O`, the GI50 in test [1] was > 100 µM (inactive); in test [2], > 100 µM (inactive); in test [3], > 100 µM (inactive); in test [4], > 100 µM (inactive); in [5], > 100 µM (inactive); in test [6], > 100 µM. Also, the GI50 in test [7], in test [8], in test [9], in test [10], in [11] and in test [15] was > 100 µM (inactive) in each case. Further, the GI50 in [12], in test [16], in [13] and in test [14] was > 100 µM (inactive) each time.

As to `Cc1cc2c3c(coc3c1-c1c(C)cc3c4c(coc14)C(=O)C(O)=C3C(C)C)C(=O)C(O)=C2C(C)C`, the GI50 in test [1] is 3.51 µM (inactive); in test [2] it was 3.58 µM (inactive); in [3] it was 2.41 µM (inactive); in test [4] it was 2.28 µM (inactive); in test [5], 3.54 µM (inactive); in [6], 3.94 µM. Moreover, the GI50 in test [7] was 2.62 µM (inactive); in [8], 3.94 µM (inactive); in test [9], 3.26 µM (inactive); in test [10], 10.1 µM (inactive); in test [11], 4.37 µM (inactive); in test [15], 6.79 µM (inactive). In addition, the GI50 in test [12] was 10.3 µM (inactive); in [16] it was 5.08 µM (inactive); in [17], 4.74 µM (inactive); in test [13], 14.3 µM (inactive); in test [14] it was 16.6 µM (inactive).

`CC1=C(C(=O)Nc2cc(F)c(F)cc2F)C(c2cccc([N+](=O)[O-])c2)C(C(=O)Nc2ccccc2C(F)(F)F)=C(C)N1` (stereo unspecified): the GI50 in test [1] is 21.1 µM (inactive); in [2], 17.5 µM (inactive); in test [3], 28.7 µM (inactive); in [4] it was 21.4 µM (inactive); in [7], 10.9 µM (inactive); in test [8], 26.7 µM (inactive). Also, the GI50 was 14.4 µM (inactive) in [9]; 21.3 µM (inactive) in test [10]; 18.5 µM (inactive) in test [11]; 18.1 µM (inactive) in test [15]; 13.9 µM (inactive) in test [12]; 18.7 µM (inactive) in [16]. The results for the GI50 in test [17], in test [13] and in test [14] were 18 µM (inactive), 23.4 µM (inactive) and 12.3 µM (inactive), respectively.

For `CCCCc1c2c(nc3c1CC/C(=C\c1ccccc1)C3=O)CCCC2`, the GI50 in [1] was 12.1 µM (inactive); in [2], 3.43 µM (inactive); in test [3] it was 7.48 µM (inactive); in test [4] it was 12.2 µM (inactive); in test [5] it was 4.9 µM (inactive); in test [6], 3.3 µM. Besides, the GI50 was 2.22 µM (inactive) in [8]; 4.07 µM (inactive) in [9]; > 10 µM (inactive) in [10]; 4.89 µM (inactive) in [11]; 2.6 µM (inactive) in test [12]; 3.49 µM (inactive) in [16]. The GI50 in test [18] is 3.54 µM (inactive); in [13], 5.78 µM (inactive); in test [14], 6.05 µM (inactive).

Take `COc1cc2c(cc1O)C=NCC2`: the GI50 in test [1] was > 100 µM (inactive); in test [2] it was 50 µM (inactive); in [3], 65.8 µM (inactive); in test [4] it was > 100 µM (inactive); in test [5], > 100 µM (inactive); in test [6] it was > 100 µM. Moreover, the GI50 in test [7], in test [9], in test [10], in test [11], in test [15] and in test [16] was > 100 µM (inactive) each time. For the same compound, the GI50 in test [17], in [13] and in test [14] was > 100 µM (inactive) each time.

On to `CN(C)/C(N)=N\C#N`, for which the GI50 in test [1] is > 100 µM (inactive); in test [3], 59.4 µM (inactive); in [4], > 100 µM (inactive); in [5], > 100 µM (inactive); in test [6], 18.9 µM; in [7], > 100 µM (inactive). In addition, the GI50 was > 100 µM (inactive) in test [8]; > 100 µM (inactive) in test [9]; > 100 µM (inactive) in [10]; > 100 µM (inactive) in test [11]; > 100 µM (inactive) in [15]; 17.5 µM (inactive) in test [12]. The GI50 in test [16], in [17], in test [13] and in test [14] was > 100 µM (inactive) throughout.

Turning to `NC1=NN(c2ccccc2)C(=O)C1/C(=N\NC(=O)c1cc2ccccc2cc1O)C(=O)Nc1cccc(C(F)(F)F)c1` (stereo unspecified), the GI50 in test [1] was 30.1 µM (inactive); in test [2], 7.06 µM (inactive); in [3], 35.7 µM (inactive); in test [4], 35.6 µM (inactive); in test [5], 25.4 µM (inactive); in [7], 33.2 µM (inactive). Further, the GI50 in test [8] was 41 µM (inactive); in test [11], 27.1 µM (inactive); in test [15], 42.5 µM (inactive); in [12], 55.1 µM (inactive); in [16], 23.5 µM (inactive); in test [17] it was 22.4 µM (inactive). For the same compound, the GI50 in test [13] was 26.4 µM (inactive); in test [14], 32.8 µM (inactive).

Turning to `O=[N+]([O-])c1ccc(C[P+]2(c3ccccc3)CCCCC2)cc1.[O-][Cl+3]([O-])([O-])[O-]`, the GI50 in test [1] is > 100 µM (inactive); in test [2], > 100 µM (inactive); in [3] it was > 100 µM (inactive); in test [4] it was > 100 µM (inactive); in test [5], > 100 µM (inactive); in [6], 72.1 µM. Besides, the GI50 in test [8], in test [9], in test [10], in [11], in test [12] and in test [17] was > 100 µM (inactive) each time. In addition, the GI50 in test [18], in test [13] and in test [14] was > 100 µM (inactive) throughout.

`CCOP1(=O)C=CC(Cl)=C(C)C1` (stereo unspecified): the GI50 is 8.63 µM (inactive) in test [1]; 3.13 µM (inactive) in [2]; 19.1 µM (inactive) in test [3]; 26.4 µM (inactive) in test [4]; 5.58 µM (inactive) in test [5]; 13.7 µM in test [6]. Moreover, the GI50 in test [7] is 16.9 µM (inactive); in [8], 13.2 µM (inactive); in test [9], 5.06 µM (inactive); in [10], > 100 µM (inactive); in test [11], 27.4 µM (inactive); in test [15], 16.4 µM (inactive). Also, the GI50 in [12] is 4.27 µM (inactive); in test [16], 22.1 µM (inactive); in test [17], 12.9 µM (inactive); in test [13] it was 15.5 µM (inactive); in test [14], 25.6 µM (inactive).

In the case of `Cc1ccc(NC(=O)CC/C(CC(=O)c2ccc(Cl)cc2)=N\NC(=O)C(=O)NN)cc1C`, the GI50 was > 100 µM (inactive) in test [1]; > 100 µM (inactive) in test [2]; > 100 µM (inactive) in [3]; > 100 µM (inactive) in test [4]; > 100 µM (inactive) in test [5]; > 100 µM in test [6]. Moreover, the GI50 in test [8], in test [9], in [10], in [11], in test [15] and in test [12] was > 100 µM (inactive) throughout. In addition, the GI50 in test [16], in [17], in test [18], in test [13] and in [14] was > 100 µM (inactive) throughout.

On to `Nc1cccc(S(=O)(=O)NCC(=O)O)c1`, for which the GI50 in [1] is > 100 µM (inactive); in test [2] it was > 100 µM (inactive); in test [3] it was > 100 µM (inactive); in [4] it was > 100 µM (inactive); in test [5] it was > 100 µM (inactive); in test [6], > 100 µM. The GI50 in test [8], in test [9], in test [10], in test [11], in test [15] and in [12] was > 100 µM (inactive) throughout. Further, the GI50 was > 100 µM (inactive) in test [16], > 100 µM (inactive) in test [17], > 100 µM (inactive) in test [13] and 73.5 µM (inactive) in test [14].

`COc1ccc(CNc2cc(OC)cc(OC)c2)cc1`: the GI50 in test [1] is > 69.3 µM (inactive); in test [3], > 100 µM (inactive); in test [4], 60.8 µM (inactive); in test [5] it was 52.4 µM (inactive); in test [7] it was 58.9 µM (inactive); in test [9], 29.8 µM (inactive). Moreover, the GI50 in test [10] was 61.1 µM (inactive); in test [11] it was > 86.1 µM (inactive); in test [15], 68.9 µM (inactive); in test [12] it was 43.8 µM (inactive); in test [16], 33.9 µM (inactive); in test [17] it was > 74 µM (inactive). Moreover, the GI50 in [13] is 64 µM (inactive); in [14] it was 29.7 µM (inactive).
